# Source: patent US20150258107A1, “METHODS AND COMPOSITIONS FOR TREATING DEPRESSION” (DemeRx, Inc., priority 2014, published 2015)
# “Also recorded” adds a separate entry of the source. Read-outs that look alike come from different tables or passages of the source.
# What was measured:
# [1] = Plasma toxicokinetics in dogs, fourteen day repeat dose; type: in vivo, dog
# Description: Noribogaine HCl was administered to groups of 4 male and 4 female dogs by single oral gavage daily for 14 days at doses of 0, 0.5, 1.0 and 5.0 mg/kg/day. An additional group of 4 male and 4 female dogs received either the vehicle control or 5.0 mg/kg/day for 14 days and were held for an additional 28 days after cessation of dosing to assess recovery from any potential drug-induced changes. The study was conducted under GLP guidelines and included comprehensive examinations of clinical signs, body weight, clinical pathology parameters, ophthalmologic examinations, ECG recordings and analyses of plasma for bioanalytical measurement of drug levels at appropriate intervals during the study. At the termination of the dosing phase and at the termination of the recovery phase, all dogs were subjected to a complete post-mortem examination including gross examination of major organs and histologic examination of an extensive list of tissues. Additional sections of brain were obtained from cerebrum, cerebellus, brain stem and spinal cord and examined histologically to evaluate potential effects on brain histopathology. In addition, these sections were examined with immunohistochemical stains for GFAP for evidence of gliosis and Calbindin for a more comprehensive examination of cerebellar Purkinje cells.
# [2] = system: healthy, drug-free male volunteers; experiment: Cold pressor test in healthy volunteers; type: in vivo, human; settings: 3, 10, 30, 60 mg single oral dose; hand immersion duration and VAS pain scores
# Description: Analgesic effect was assessed based on duration of hand immersion in ice water and on visual analog scale (VAS) pain scores upon hand removal from the water bath.
# (§1) Safety and tolerability of noribogaine were tested in the group of volunteers from Example 9. […] Safety evaluations included clinical monitoring, recording of adverse events (AEs), safety laboratory tests, vital signs, ECG telemetry from −2 h to 6 h after dosing, and 12-lead electrocardiograms (ECGs) up to 216 hours post-dosing.
# [3] = system: healthy, drug-free male volunteers; experiment: Safety and tolerability of noribogaine in healthy volunteers; type: in vivo, human
# Description: as §1
# [4] = Pharmacokinetics in opioid-dependent patients (Phase IB study); type: in vivo, human; settings: 60, 120, 180 mg
# Description: Three cohorts of nine (9) subjects (6 administered noribogaine and 3 administered placebo in each cohort) were evaluated for tolerability, pharmacokinetics, and efficacy. Cohort 1 received a single dose of 60 mg noribogaine or placebo. Cohort 2 received a single dose of 120 mg noribogaine or placebo. Cohort 3 received a single dose of 180 mg noribogaine or placebo. […] Headaches were frequent in the placebo and 60 mg noribogaine treatment groups, but were attenuated in the 120 mg and 180 mg dose groups.
# [5] = system: opioid-dependent participants; experiment: QT interval in opioid-dependent participants; type: in vivo, human; settings: 60, 120, 180 mg, first 24 hours post administration
# Description: Patients' QT intervals were evaluated at regular time points throughout the study.
# [6] = female, dog, plasma, po, 0.5 mg/kg, female dogs, Gr 2, 0.5 mg/kg, D1
# [7] = female, dog, plasma, po, 0.5 mg/kg, female dogs, Gr 2, 0.5 mg/kg, D14
# [8] = female, dog, plasma, po, 1 mg/kg, female dogs, Gr 3, 1.0 mg/kg, D1
# [9] = female, dog, plasma, po, 1 mg/kg, female dogs, Gr 3, 1.0 mg/kg, D14
# [10] = female, dog, plasma, po, 5 mg/kg, female dogs, Gr 4, 5.0 mg/kg, D1
# [11] = female, dog, plasma, po, 5 mg/kg, female dogs, Gr 4, 5.0 mg/kg, D14
# [12] = male, dog, plasma, po, 0.5 mg/kg, male dogs, Gr 2, 0.5 mg/kg, D1
# [13] = male, dog, plasma, po, 0.5 mg/kg, male dogs, Gr 2, 0.5 mg/kg, D14
# [14] = male, dog, plasma, po, 1 mg/kg, male dogs, Gr 3, 1.0 mg/kg, D1
# [15] = male, dog, plasma, po, 1 mg/kg, male dogs, Gr 3, 1.0 mg/kg, D14
# [16] = male, dog, plasma, po, 5 mg/kg, male dogs, Gr 4, 5.0 mg/kg, D1
# [17] = male, dog, plasma, po, 5 mg/kg, male dogs, Gr 4, 5.0 mg/kg, D14
smiles,measurement,setting,value
CC[C@H]1CC2C[C@H]3c4[nH]c5ccc(O)cc5c4CCN(C2)C13 [noribogaine],Cmax,"[1]; female dogs, Gr 2, 0.5 mg/kg, D1",25.3 ng/mL
same,Cmax,"[1]; female dogs, Gr 2, 0.5 mg/kg, D14",29.8 ng/mL
same,Cmax,"[1]; female dogs, Gr 3, 1.0 mg/kg, D1",68.5 ng/mL
same,Cmax,"[1]; female dogs, Gr 3, 1.0 mg/kg, D14",74.1 ng/mL
same,Cmax,"[1]; female dogs, Gr 4, 5.0 mg/kg, D1",691 ng/mL
same,Cmax,"[1]; female dogs, Gr 4, 5.0 mg/kg, D14",683 ng/mL
same,AUC(0-inf),[1]; [6],44.9 ng·h/mL
same,Tmax,[1]; [6],0.5 h
same,half-life,[1]; [6],1 h
same,AUC(0-t),"[1]; female, dog, plasma, po, 0.5 mg/kg, female dogs, Gr 2, 0.5 mg/kg, D1, read-out: AUC0-24 h",40.4 ng·h/mL
same,AUC(0-t),"[1]; female, dog, plasma, po, 0.5 mg/kg, female dogs, Gr 2, 0.5 mg/kg, D1, read-out: AUC0-last",31.5 ng·h/mL
same,AUC(0-inf),[1]; [7],45.7 ng·h/mL
same,Tmax,[1]; [7],1 h
same,half-life,[1]; [7],1.1 h
same,AUC(0-t),"[1]; female, dog, plasma, po, 0.5 mg/kg, female dogs, Gr 2, 0.5 mg/kg, D14, read-out: AUC0-24 h",55 ng·h/mL
same,AUC(0-t),"[1]; female, dog, plasma, po, 0.5 mg/kg, female dogs, Gr 2, 0.5 mg/kg, D14, read-out: AUC0-last",35.4 ng·h/mL
same,AUC(0-inf),[1]; [8],165 ng·h/mL
same,Tmax,[1]; [8],0.8 h
same,half-life,[1]; [8],1.4 h
same,AUC(0-t),"[1]; female, dog, plasma, po, 1 mg/kg, female dogs, Gr 3, 1.0 mg/kg, D1, read-out: AUC0-24 h",176 ng·h/mL
same,AUC(0-t),"[1]; female, dog, plasma, po, 1 mg/kg, female dogs, Gr 3, 1.0 mg/kg, D1, read-out: AUC0-last",149 ng·h/mL
same,AUC(0-inf),[1]; [9],197 ng·h/mL
same,Tmax,[1]; [9],0.5 h
same,half-life,[1]; [9],1.6 h
same,AUC(0-t),"[1]; female, dog, plasma, po, 1 mg/kg, female dogs, Gr 3, 1.0 mg/kg, D14, read-out: AUC0-24 h",204 ng·h/mL
same,AUC(0-t),"[1]; female, dog, plasma, po, 1 mg/kg, female dogs, Gr 3, 1.0 mg/kg, D14, read-out: AUC0-last",169 ng·h/mL
same,AUC(0-inf),[1]; [10],3430 ng·h/mL
same,Tmax,[1]; [10],0.6 h
same,half-life,[1]; [10],4.3 h
same,AUC(0-t),"[1]; female, dog, plasma, po, 5 mg/kg, female dogs, Gr 4, 5.0 mg/kg, D1, read-out: AUC0-24 h",3370 ng·h/mL
same,AUC(0-t),"[1]; female, dog, plasma, po, 5 mg/kg, female dogs, Gr 4, 5.0 mg/kg, D1, read-out: AUC0-last",3370 ng·h/mL
same,AUC(0-inf),[1]; [11],6280 ng·h/mL
same,half-life,[1]; [11],5.7 h
same,AUC(0-t),"[1]; female, dog, plasma, po, 5 mg/kg, female dogs, Gr 4, 5.0 mg/kg, D14, read-out: AUC0-24 h",5950 ng·h/mL
same,AUC(0-t),"[1]; female, dog, plasma, po, 5 mg/kg, female dogs, Gr 4, 5.0 mg/kg, D14, read-out: AUC0-last",5950 ng·h/mL
same,AUC(0-inf),[1]; [12],67.8 ng·h/mL
same,Tmax,[1]; [12],0.7 h
same,half-life,[1]; [12],1.3 h
same,AUC(0-t),"[1]; male, dog, plasma, po, 0.5 mg/kg, male dogs, Gr 2, 0.5 mg/kg, D1, read-out: AUC0-24 h",59.7 ng·h/mL
same,AUC(0-t),"[1]; male, dog, plasma, po, 0.5 mg/kg, male dogs, Gr 2, 0.5 mg/kg, D1, read-out: AUC0-last",46.6 ng·h/mL
same,Cmax,"[1]; male, dog, plasma, po, 0.5 mg/kg, male dogs, Gr 2, 0.5 mg/kg, D1, read-out: Cmax",28.8 ng/mL
same,AUC(0-inf),[1]; [13],68.2 ng·h/mL
same,Tmax,[1]; [13],0.7 h
same,half-life,[1]; [13],1.3 h
same,AUC(0-t),"[1]; male, dog, plasma, po, 0.5 mg/kg, male dogs, Gr 2, 0.5 mg/kg, D14, read-out: AUC0-24 h",64.5 ng·h/mL
same,AUC(0-t),"[1]; male, dog, plasma, po, 0.5 mg/kg, male dogs, Gr 2, 0.5 mg/kg, D14, read-out: AUC0-last",53.2 ng·h/mL
same,Cmax,"[1]; male, dog, plasma, po, 0.5 mg/kg, male dogs, Gr 2, 0.5 mg/kg, D14, read-out: Cmax",29.4 ng/mL
same,AUC(0-inf),[1]; [14],121 ng·h/mL
same,Tmax,[1]; [14],0.9 h
same,half-life,[1]; [14],1.2 h
same,AUC(0-t),"[1]; male, dog, plasma, po, 1 mg/kg, male dogs, Gr 3, 1.0 mg/kg, D1, read-out: AUC0-24 h",120 ng·h/mL
same,AUC(0-t),"[1]; male, dog, plasma, po, 1 mg/kg, male dogs, Gr 3, 1.0 mg/kg, D1, read-out: AUC0-last",102 ng·h/mL
same,Cmax,"[1]; male, dog, plasma, po, 1 mg/kg, male dogs, Gr 3, 1.0 mg/kg, D1, read-out: Cmax",58.6 ng/mL
same,AUC(0-inf),[1]; [15],196 ng·h/mL
same,Tmax,[1]; [15],0.8 h
same,half-life,[1]; [15],1.8 h
same,AUC(0-t),"[1]; male, dog, plasma, po, 1 mg/kg, male dogs, Gr 3, 1.0 mg/kg, D14, read-out: AUC0-24 h",210 ng·h/mL
same,AUC(0-t),"[1]; male, dog, plasma, po, 1 mg/kg, male dogs, Gr 3, 1.0 mg/kg, D14, read-out: AUC0-last",172 ng·h/mL
same,Cmax,"[1]; male, dog, plasma, po, 1 mg/kg, male dogs, Gr 3, 1.0 mg/kg, D14, read-out: Cmax",67.6 ng/mL
same,AUC(0-inf),[1]; [16],3630 ng·h/mL
same,Tmax,[1]; [16],0.6 h
same,half-life,[1]; [16],4.7 h
same,AUC(0-t),"[1]; male, dog, plasma, po, 5 mg/kg, male dogs, Gr 4, 5.0 mg/kg, D1, read-out: AUC0-24 h",3520 ng·h/mL
same,AUC(0-t),"[1]; male, dog, plasma, po, 5 mg/kg, male dogs, Gr 4, 5.0 mg/kg, D1, read-out: AUC0-last",3520 ng·h/mL
same,Cmax,"[1]; male, dog, plasma, po, 5 mg/kg, male dogs, Gr 4, 5.0 mg/kg, D1, read-out: Cmax",693 ng/mL
same,AUC(0-inf),[1]; [17],6960 ng·h/mL
same,Tmax,[1]; [17],0.9 h
same,half-life,[1]; [17],6.5 h
same,AUC(0-t),"[1]; male, dog, plasma, po, 5 mg/kg, male dogs, Gr 4, 5.0 mg/kg, D14, read-out: AUC0-24 h",6400 ng·h/mL
same,AUC(0-t),"[1]; male, dog, plasma, po, 5 mg/kg, male dogs, Gr 4, 5.0 mg/kg, D14, read-out: AUC0-last",6400 ng·h/mL
same,Cmax,"[1]; male, dog, plasma, po, 5 mg/kg, male dogs, Gr 4, 5.0 mg/kg, D14, read-out: Cmax",716 ng/mL
same,Analgesic effect in the cold pressor test,[2],no analgesic effect
same,Adverse events reported,[3]; 3 mg dose group,five adverse events were reported by two subjects
same,Adverse events reported,[3]; 10 mg dose group,one adverse event was reported by single subjects
same,Single increase in QTcF (one subject),"[3]; 10 mg, 24 hours post-dosing",> 60 ms
same,Adverse events reported,[3]; 30 mg dose group,one adverse event was reported by single subjects
same,"Oximetry, capnography, respiratory rate",[3]; 3-60 mg single oral dose,"no changes in oximetry or capnography, or changes in respiratory rate"
same,QTcF values >500 msec,[3]; 3-60 mg single oral dose,no QTcF values>500 msec at any time
same,Vital signs and safety laboratory tests,[3]; 3-60 mg single oral dose,no changes in vital signs or safety laboratory tests of note
same,"Adverse events, Mild",[3]; Dose 3 mg,Back pain; also recorded: Dizziness; also recorded: Epistaxis; also recorded: Headache
same,"Adverse events, Moderate",[3]; Dose 3 mg,Headache
same,"Adverse events, Mild",[3]; Dose 10 mg,Headache
same,"Adverse events, Mild",[3]; Dose 30 mg,Headache
same,Dose dependence of maximum serum concentration (Cmax),[4],increased in a dose-dependent manner
same,QT interval prolongation (ΔQTc1),[5],dose-dependent increase in QT interval prolongation
